# Data published in patent US10286038B2, “Lysosome membrane protein 2 (LIMP-2) based peptides and related uses” (Northwestern University, priority 2016, dated 2019).
# Experiments:
# [1] = system: endogenous GC in Cos 7 cells; details: biotinylated peptide, neutral pH
# Description: For pulldown of endogenous and overexpressed GC from N2a cell lysates 20 nmol of LIMP-2-derived peptide (Helix 5 and 3×D) was incubated with 50 μl cell lysate at 4° C. overnight. The cells were harvested in EBC-buffer (Table 3). After blocking and equilibration of the streptavidin beads (see above) the cell lysate/peptide mixtures were added to the beads for 30 min. at room temperature. The supernatant was removed. After extensive washing of the beads with NaPhosphate buffer, the bound peptides and proteins were released from the beads by incubation with Laemmli buffer (see above). After centrifugation for 2 min. at 17,000×g the supernatant was removed (BOUND fraction) and subjected to SDS-Page and Western-blotting. An antibody against human GC (α-hGC, for details see Table 4) was used for detection.
# [2] = target: T1, recombinant α-mannosidase (LAMAN) (Homo sapiens, UniProt O00754); assay: recombinant LAMAN activity assay; format: biochemical; details: 1×-10× molar excess, acid pH
# T1 construct: purchased Zymenex, Hillerod, DK
# T1 sequence (O00754 50-1011): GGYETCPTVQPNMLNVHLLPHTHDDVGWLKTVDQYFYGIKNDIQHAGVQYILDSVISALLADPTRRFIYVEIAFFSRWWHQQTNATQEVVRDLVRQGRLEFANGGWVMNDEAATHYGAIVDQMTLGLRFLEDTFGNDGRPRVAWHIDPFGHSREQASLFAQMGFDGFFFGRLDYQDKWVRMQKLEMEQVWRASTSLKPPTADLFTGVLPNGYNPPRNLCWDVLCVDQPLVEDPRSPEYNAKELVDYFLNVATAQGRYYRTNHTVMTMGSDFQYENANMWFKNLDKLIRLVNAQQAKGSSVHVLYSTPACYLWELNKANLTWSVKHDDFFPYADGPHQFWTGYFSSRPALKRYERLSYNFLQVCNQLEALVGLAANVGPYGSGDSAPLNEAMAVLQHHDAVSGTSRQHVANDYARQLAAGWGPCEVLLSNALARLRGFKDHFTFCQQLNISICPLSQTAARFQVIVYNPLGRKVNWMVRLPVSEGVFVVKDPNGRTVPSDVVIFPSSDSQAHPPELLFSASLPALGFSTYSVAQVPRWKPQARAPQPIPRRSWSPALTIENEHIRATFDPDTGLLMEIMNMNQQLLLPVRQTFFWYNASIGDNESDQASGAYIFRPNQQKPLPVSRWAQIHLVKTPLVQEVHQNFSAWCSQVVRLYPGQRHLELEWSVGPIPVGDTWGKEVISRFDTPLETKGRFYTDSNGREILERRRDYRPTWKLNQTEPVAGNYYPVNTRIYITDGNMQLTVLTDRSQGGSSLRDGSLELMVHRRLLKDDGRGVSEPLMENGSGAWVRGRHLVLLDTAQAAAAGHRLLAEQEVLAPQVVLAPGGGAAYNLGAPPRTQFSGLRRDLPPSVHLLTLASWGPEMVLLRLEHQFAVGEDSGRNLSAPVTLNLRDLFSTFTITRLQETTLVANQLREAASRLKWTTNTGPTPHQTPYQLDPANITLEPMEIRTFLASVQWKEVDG
# Source text: To determine the enzymatic activity of the recombinant enzymes, lyophilized enzymes were reconstituted in the NaPi buffer described above. The lyophilized samples of wild-type GC (Cerezyme®) and the custom-made recombinant N307S mutant enzyme contain 0.01% polysorbate 80 (Tween 80) (see prescription information for Cerezyme® at the website for Cerezyme®). As indicated in our experiments, the concentration of the detergent is sufficient to support active GC enzyme and to perform the in vitro GC activity assays without adding further detergents to the reaction mix. For enzyme activity assays of recombinant proteins, 0.1-0.2 nmol of GC (Cerezyme®; N370S) and LAMAN were used in the absence or presence of 10× the molar amount of LIMP-2-derived peptides (Table 1) or LIMP-2 ectodomain (1-2 nmol) (Table 3).
# All activity assays were performed at acid pH.
# [3] = target: T2, lysosomal GC of living H4 cells (Homo sapiens, UniProt P04062); assay: live-cell lysosomal GC activity assay in H4 cells; format: cell-based; details: 10 μM TAT peptide, relative to buffer control
# T2 construct: Lysosomal GC activity of living H4 cells measured in vivo after incubation with uptake-optimized TAT-peptides; endogenous in cells; host or cells: H4 human neuroglioma cells (for the 74 h course: stably overexpressing α-synuclein)
# T2 sequence (P04062 40-536): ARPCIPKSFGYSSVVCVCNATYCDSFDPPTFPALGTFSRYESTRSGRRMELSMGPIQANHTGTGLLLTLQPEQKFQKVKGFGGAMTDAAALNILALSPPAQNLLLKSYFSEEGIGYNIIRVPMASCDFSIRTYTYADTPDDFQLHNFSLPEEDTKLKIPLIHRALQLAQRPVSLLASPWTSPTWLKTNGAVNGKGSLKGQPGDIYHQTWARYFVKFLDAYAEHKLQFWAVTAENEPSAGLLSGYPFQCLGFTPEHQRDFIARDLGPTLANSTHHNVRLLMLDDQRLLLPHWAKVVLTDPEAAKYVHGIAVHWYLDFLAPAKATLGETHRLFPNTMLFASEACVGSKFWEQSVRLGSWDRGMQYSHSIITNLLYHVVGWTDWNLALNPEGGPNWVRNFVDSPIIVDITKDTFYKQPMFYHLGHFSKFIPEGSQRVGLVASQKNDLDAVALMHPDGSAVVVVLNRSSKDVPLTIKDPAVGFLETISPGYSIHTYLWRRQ
# Description: Lysosomal GC activity in living cells was assessed by applying a drug-response assay in the presence and absence of a lysosomal inhibitor (bafilomycin A1; Invivogen) dissolved in DMSO (24). TAT peptides (10 μM) were added to the cell medium for 1 h; then H4 cells (see Table 5) were incubated with 100 μg/mL cell-permeable artificial substrate 5-(pentafluorobenzoylamino) fluorescein di-β-D-glucopyranoside (PFB-FDGlu) (Life Technologies, Thermo Fisher Scientific) for another hour. Cells were washed with warm medium; then the medium was replaced with phenol red-free neurobasal medium (Life Technologies, Thermo Fisher Scientific). The fluorescence intensity was recorded every 30 min for β-4 h in a SpectraMax i3 plate reader (Molecular Devices) (PFB-FDGlu: excitation=485 nm, emission=530 nm). After the final reading, cells were fixed in 4% formaldehyde/PBS and were stained with CellTag 700 (LICOR Biosciences) according to the manufacturer's instructions to measure cell volume. The plate was scanned on an Odyssey infrared imager (LI-COR Biosciences). Fluorescence intensities were normalized to cell volume and graphed versus time. Whole-cell activity was obtained by calculating the area below the DMSO curve. Nonlysosomal activity corresponds to the area under the bafilomycin A1 curve. Lysosomal activity was obtained by subtracting both areas (FIG. 6H).
substance,measurement,setting,value
Biotin-Ttds-LREIIEAMLKAYQQKLFVTHTVDE [helix 5 peptide],co-precipitation of endogenous GC from cellular lysates,[1],specifically co-precipitated
same,effect on enzymatic activity of recombinant LAMAN,[2],No effect
Biotin-Ttds-KFERQLREIIEAMLKAYQQKLFVTHTVDEYGRKKRRQRRR [helix 5 TAT-peptide],elevation of GC activity within lysosomes of living cells,[3],18%
